Here are results for seven compounds from publication PMC11555173, “Preparation and preliminary evaluation of a tritium-labeled allosteric P2X4 receptor antagonist” (Purinergic Signalling, 2024).

The subject of experiment [1] is P2X4 receptor. The arrangement: method as in PMID 36150180. Particulars: ref [38]; cited from earlier work.
In experiment [2] the target is T1, human P2X4 receptor (Homo sapiens, UniProt Q99571).
T1 sequence (Q99571 1-388): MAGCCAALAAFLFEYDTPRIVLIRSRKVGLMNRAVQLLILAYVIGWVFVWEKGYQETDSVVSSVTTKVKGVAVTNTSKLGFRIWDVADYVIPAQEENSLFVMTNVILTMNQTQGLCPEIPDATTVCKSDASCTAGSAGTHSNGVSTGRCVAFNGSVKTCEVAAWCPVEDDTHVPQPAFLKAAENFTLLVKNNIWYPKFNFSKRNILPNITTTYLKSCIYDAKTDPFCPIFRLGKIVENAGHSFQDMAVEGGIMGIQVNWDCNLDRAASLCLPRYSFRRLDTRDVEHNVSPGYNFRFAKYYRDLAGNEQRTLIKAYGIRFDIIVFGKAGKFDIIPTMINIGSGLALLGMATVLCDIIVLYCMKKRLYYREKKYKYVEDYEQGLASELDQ
Description: Calcium influx assay, 1321N1 astrocytoma cells stably expressing human P2X4 receptor. In kind it is cell-based. Also on record: expressed in transfected cells. The procedure: Calcium influx assays using 1321N1 astrocytoma cells that stably expressed the human P2X4 receptor were performed. Concentration-dependent inhibition of ATP-induced calcium influx was observed.
(§1) To determine the effects of the compound on P2X4, P2X2, and P2X7 receptors, the agonist-mediated increases in cytosolic Ca^2+ concentrations were measured using the fluorescent Ca^2+ chelating dye Fluo-4 acetoxymethyl ester (AM) (Thermo Fisher Scientific). On the first day, 1321N1 astrocytoma cells (45.000 cells/well) stably expressing the respective P2X receptor were seeded into a 96-well plate (No. 3340, Corning, Kennebunk, Maine, USA), and incubated at 37 °C and 10% of CO2. […]
(§2) Following the incubation, the dye solution was carefully removed, and the antagonist (dissolved in DMSO) and HBSS buffer were added to the cells. […] To activate the receptors, transparent 96-well reagent plates (Boettger, Bodenmais, Germany) containing the agonists dissolved in HBSS buffer (10-fold concentration of previously determined EC80) were prepared. The plates were measured after 30 min of preincubation with antagonist with the imaging plate reader NOVOstar (BMG Labtech GmbH, Offenburg, Germany) at 520 nm for 30 s at 0.4 s intervals.

Experiment [3] addresses T1, human P2X4 receptor. Description: [3H]PSB-OR-2020 radioligand binding assay, HEK293 cell membranes expressing human P2X4 receptor. The arrangement: expressed in transfected cells; host or cells: HEK293 cells, transient transfection (pQCXIN; pcDNA3.1(-) was also tried).
Another experiment concerns the target T2, human P2X1 (Homo sapiens, UniProt P51575).
T2 construct: expressed in transfected cells
T2 sequence (P51575 1-399): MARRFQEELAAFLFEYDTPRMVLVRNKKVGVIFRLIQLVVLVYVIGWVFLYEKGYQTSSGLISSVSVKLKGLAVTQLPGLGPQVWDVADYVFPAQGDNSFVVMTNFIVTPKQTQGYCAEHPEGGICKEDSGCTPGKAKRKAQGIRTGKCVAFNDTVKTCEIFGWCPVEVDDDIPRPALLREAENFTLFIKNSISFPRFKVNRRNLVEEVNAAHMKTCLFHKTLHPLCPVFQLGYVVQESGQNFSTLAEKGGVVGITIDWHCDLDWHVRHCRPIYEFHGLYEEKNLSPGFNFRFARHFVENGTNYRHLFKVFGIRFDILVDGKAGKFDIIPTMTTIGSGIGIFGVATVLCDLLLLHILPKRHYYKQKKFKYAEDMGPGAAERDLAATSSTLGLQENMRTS
Nature of the experiment: Calcium influx assay, 1321N1 astrocytoma cells stably expressing human P2X1 receptor. Type of experiment: cell-based. The procedure: (§3) The selectivity of PSB-OR-2020 versus other P2X receptor subtypes was determined in the same type of assay using 1321N1 astrocytoma cells stably expressing the respective human P2X receptor subtype (see Table 1).
as §1, §2

In a further experiment the target is T3, human P2X7 (Homo sapiens, UniProt Q99572).
T3 construct: expressed in transfected cells
T3 sequence (Q99572 1-595): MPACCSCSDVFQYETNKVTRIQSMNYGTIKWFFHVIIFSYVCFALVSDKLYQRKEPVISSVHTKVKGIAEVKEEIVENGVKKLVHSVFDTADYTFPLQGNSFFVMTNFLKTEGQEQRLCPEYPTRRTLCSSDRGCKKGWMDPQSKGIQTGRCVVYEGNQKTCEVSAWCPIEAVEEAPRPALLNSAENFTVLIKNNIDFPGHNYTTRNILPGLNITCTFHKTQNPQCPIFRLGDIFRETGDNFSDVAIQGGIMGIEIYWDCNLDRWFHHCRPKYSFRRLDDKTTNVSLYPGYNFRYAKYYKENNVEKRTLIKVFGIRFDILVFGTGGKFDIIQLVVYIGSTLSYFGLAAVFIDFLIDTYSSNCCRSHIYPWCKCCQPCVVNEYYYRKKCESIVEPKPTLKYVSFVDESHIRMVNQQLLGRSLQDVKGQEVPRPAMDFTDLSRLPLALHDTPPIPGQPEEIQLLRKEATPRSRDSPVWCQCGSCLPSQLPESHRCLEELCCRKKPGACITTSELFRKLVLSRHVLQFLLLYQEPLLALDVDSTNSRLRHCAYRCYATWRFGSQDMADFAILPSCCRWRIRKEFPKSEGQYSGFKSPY
Nature of the experiment: Calcium influx assay, 1321N1 astrocytoma cells stably expressing human P2X7 receptor (agonist Bz-ATP). In kind it is cell-based. Particulars: Bz-ATP 6,000 nM (EC80). The procedure:
as §3, §1, §2

The target in a further experiment is T4, human P2X2 (Homo sapiens, UniProt Q9UBL9).
T4 construct: expressed in transfected cells
T4 sequence (Q9UBL9 1-471): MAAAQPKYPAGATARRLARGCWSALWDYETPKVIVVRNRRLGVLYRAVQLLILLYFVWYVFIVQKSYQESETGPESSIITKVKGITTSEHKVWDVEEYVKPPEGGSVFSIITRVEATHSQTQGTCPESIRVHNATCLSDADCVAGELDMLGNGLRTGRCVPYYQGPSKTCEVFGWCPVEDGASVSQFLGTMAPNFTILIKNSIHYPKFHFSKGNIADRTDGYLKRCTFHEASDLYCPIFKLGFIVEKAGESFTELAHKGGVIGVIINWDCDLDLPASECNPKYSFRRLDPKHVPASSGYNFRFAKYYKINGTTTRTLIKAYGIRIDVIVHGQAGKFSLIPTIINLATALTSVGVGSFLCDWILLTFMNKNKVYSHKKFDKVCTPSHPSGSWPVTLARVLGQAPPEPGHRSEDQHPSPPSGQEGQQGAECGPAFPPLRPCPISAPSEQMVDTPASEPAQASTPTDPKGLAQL
Description: Calcium influx assay, 1321N1 astrocytoma cells stably expressing human P2X2 receptor. Type of experiment: cell-based.

The target of the next experiment is T5, human P2X3 (Homo sapiens, UniProt P56373).
T5 construct: expressed in transfected cells
T5 sequence (P56373 1-397): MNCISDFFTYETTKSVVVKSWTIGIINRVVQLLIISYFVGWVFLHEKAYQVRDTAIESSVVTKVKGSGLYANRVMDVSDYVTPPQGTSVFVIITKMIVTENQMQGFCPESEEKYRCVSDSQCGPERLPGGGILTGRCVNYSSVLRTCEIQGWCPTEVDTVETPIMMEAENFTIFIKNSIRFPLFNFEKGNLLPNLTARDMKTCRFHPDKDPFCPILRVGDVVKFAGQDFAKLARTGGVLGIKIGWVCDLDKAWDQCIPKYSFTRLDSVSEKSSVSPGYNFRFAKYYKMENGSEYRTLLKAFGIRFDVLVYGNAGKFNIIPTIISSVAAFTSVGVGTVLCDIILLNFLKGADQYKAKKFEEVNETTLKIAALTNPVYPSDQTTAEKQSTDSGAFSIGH
Description: Calcium influx assay, 1321N1 astrocytoma cells stably expressing human P2X3 receptor. In kind it is cell-based. Here is the method:
as §3, §1, §2

The subject of the next experiment is P2X4. Also on record: method as in PMID 30537520, PMID 34476721. Particulars: ref [14], [36]; cited from earlier work.
The target in experiment [4] is T1, human P2X4 receptor. Also on record: expressed in transfected cells; host or cells: HEK293 cells, transient transfection (pQCXIN; pcDNA3.1(-) was also tried). The conditions noted are these: ref Müller et al. [36]; cited from earlier work.
The subject of experiment [5] is P2X4 receptor. Also on record: method as in PMID 35338432. Particulars: ref [44]; cited from earlier work.
Where [6] appears, read: high concentration of competitor, radioligand 10 nM.
Setting [7] is: 4 °C, three independent association and dissociation experiments, read-out: kinetic KD value (koff/kon).
Setting [8] is: vs. [3H]PSB-OR-2020 (10 nM), HEK293 membranes, human P2X4, read-out: KD value, homologous competition binding.
[9] abbreviates: 4 °C, radioligand 10 nM, HEK293 membranes, human P2X4.

“Also recorded” adds a separate entry of the source. Like-named read-outs stand apart in the source and are kept apart here.

As a reminder, the IC50 is the point on the concentration scale where inhibition reaches its midpoint.

Consider `O=C1CC(=O)N(c2ccnc(-c3noc(=S)[nH]3)c2)c2ccc3ccccc3c2N1` [MRS4719], for which, in the experiment on P2X4 receptor [1], the “effects in a murine ischemic stroke model” value is “neuroprotective and neuro-rehabilitative effects”.
On to `Nc1ncnc2c1ncn2[C@@H]1O[C@H](COP(=O)(O)OP(=O)(O)OP(=O)(O)O)[C@@H](O)[C@H]1O` [ATP, Adenosine 5’-triphosphate, reference compound], for which the “EC80 concentration of agonist” value at human P2X4 receptor [2] (human P2X4, calcium influx) came to 300 nM. Further, the “displacement of [3H]PSB-OR-2020 from its binding site” value (“displacement” for short) on human P2X4 receptor [3] (setting [6]) was “only slightly displaced; also recorded: does not compete”.
In the case of `CC(C)c1cc(Br)c(NC(=O)Nc2cccnc2)c(Br)c1` [BX430, reference compound], the “displacement” value is listed as “not or only partially be displaced” on human P2X4 receptor [3] (setting [6]) and “less than 40%” at human P2X4 receptor [3] (high concentrations of competitor, radioligand 10 nM).
Turning to `Cc1nsc(-c2ccc(C)c(NCC(=O)N3CCc4c3cccc4[C@](C)(O)CO)c2)n1` [PSB-OR-2020, (S)-1-(4-(1,2-dihydroxypropane-2yl)indolin-1-yl)-2-((2-methyl-5-(3-methyl-1,2,4-thiadiazol-5-yl)phenyl)amino)ethane-1-one], the IC50 is 6.32 ± 1.52 nM on human P2X4 receptor [2] (read-out: IC50 ± SEM, inhibition of ATP-induced Ca2+ influx); greater than 10000 nM at human P2X1; greater than 10000 nM on human P2X7; greater than 10000 nM at human P2X2; 2030 nM at human P2X3. In addition, the Kd at human P2X4 receptor [3] (setting [7]) was found to be 7.06 ± 3.23 nM; at human P2X4 receptor [3] (setting [8]), 20.4 ± 7.5 nM. Further, the Bmax value at human P2X4 receptor [3] (homologous competition binding, HEK293 membranes, human P2X4) was 71.7 fmol/mg of protein. The “IC50 at P2X3 receptor relative to IC50 at P2X4 receptor” value at human P2X3 (P2X3 vs P2X4 selectivity) was “about 300 fold”.
At human P2X4 receptor [3] (setting [9]), `[3H]c1cc2c(c([C@](C)(O)CO)c1)CCN2C(=O)CNc1cc(-c2nc(C)ns2)c([3H])cc1C` [[^3H]PSB-OR-2020] had an association half-life of 8.44 ± 2.59 min and a dissociation half-life of 20.4 ± 2.9 min. At human P2X4 receptor [3] (setting [7]), the Kd is 7.06 ± 3.23 nM. The Kd at human P2X4 receptor [3] (setting [8]) worked out at 20.4 nM.
Consider `Cc1nsc(-c2ccc(C)c(NCC(=O)c3c[nH]c4ccccc34)c2)n1` [PSB-15417], for which the “efficacy in an animal model of neuropathic pain” value in the experiment with P2X4 is “showing efficacy”. Moreover, the “displacement” value on human P2X4 receptor [3] (setting [6]) is reported as “completely displaced”. Moreover, the IC50 on human P2X4 receptor [4] was 21.9 nM.
`O=C1CC(=O)N(c2cccc(-c3noc(=S)[nH]3)c2)c2ccc3ccccc3c2N1` [NP-1815-PX]: in the experiment on P2X4 receptor [5], the “effects in a murine model of colitis” value was “improve several inflammatory parameters”.
